Experimental data from PMC6934184, “Selective DNA-PKcs inhibition extends the therapeutic index of localized radiotherapy and chemotherapy” (The Journal of Clinical Investigation, 2019).

Target: T1, STK38 (NDR) (Homo sapiens, UniProt Q15208)
T1 construct: purchased Thermo Fisher Scientific (Life Technologies) SelectScreen
Experiment: SelectScreen LanthaScreen
Assay type: binding
Settings: read-out: % displacement
Method in brief: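 SelectScreen broad panel; activity (Z'LYTE, Adapta) plus binding formats. ATP: Km app for CSF1R Z'LYTE; 10 for CAMK1 Adapta. Readout = % per kinase.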

T1 sequence (Q15208 whole entry): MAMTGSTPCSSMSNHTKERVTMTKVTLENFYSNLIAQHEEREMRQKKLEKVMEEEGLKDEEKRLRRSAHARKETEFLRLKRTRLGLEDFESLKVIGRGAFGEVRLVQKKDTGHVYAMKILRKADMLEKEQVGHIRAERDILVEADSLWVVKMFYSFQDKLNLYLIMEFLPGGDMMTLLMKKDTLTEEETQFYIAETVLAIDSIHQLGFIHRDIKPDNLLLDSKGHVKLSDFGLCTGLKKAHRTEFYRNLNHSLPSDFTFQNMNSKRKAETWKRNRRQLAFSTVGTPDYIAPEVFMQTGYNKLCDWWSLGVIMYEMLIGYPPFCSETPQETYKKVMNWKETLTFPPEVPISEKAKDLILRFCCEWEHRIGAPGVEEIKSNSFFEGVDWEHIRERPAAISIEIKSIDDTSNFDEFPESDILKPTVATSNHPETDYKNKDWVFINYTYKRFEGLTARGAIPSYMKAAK

Work on `CN(C(=O)CN1CCOCC1)c1ccc2sc3c(-c4cccc5c(=O)cc(N6CC7CCC(C6)O7)oc45)cccc3c2c1` [NU5455] yielded an inhibition at 1 µM of -5.9%.
